This is an account of results in US4957920A, “Benzimidazoles, and pharmaceutical preparations containing these compounds” (priority 1987, dated 1990).

Series [1] concerns isolated, perfused guinea pig hearts. As to the kind of experiment: Haemodynamic effects on isolated, perfused Langendorff hearts (guinea pigs). Conditions: Cavia porcellus. An excerpt:
(§1) The benzimidazoles according to the invention corresponding to the general formula I combine good oral availability with interesting pharmacological properties, especially cardiovascular effects, in particular positive inotropic and blood pressure lowering effects. They show an excellent cardiotonic activity in numerous pharmacological standard models, for example in vitro in the isolated, perfused Langendorff heart or in vivo on narcotised guinea pigs, where they produce a marked increase in contractility.
1. Investigations on isolated, perfused Langendorff Hearts (guinea pigs)
The arrangement of Langendorff was modified according to P. R. Beckett (J. Pharm. Pharmacol. 22, 818 (1970)) and R. M. Abel and R. L. Reis (Circ. Res. 27, 961 (1970)) to determine the haemodynamic effects of the compounds according to the invention on isolated, perfused guinea pig hearts. The spontaneously beating guinea pig hearts were catheterised in the left ventricle and perfused with solutions of the test substances in physiological saline solution/ethanol (9:1) at concentrations of 10^-4 to 10^-8 mol/1 at a constant perfusion pressure of 60 mm Hg.

The target of series [2] is T1, phosphodiesterase type III obtained from ox heart (Bos taurus, UniProt A0A3Q1M1E8).
T1 sequence (A0A3Q1M1E8 1-1126): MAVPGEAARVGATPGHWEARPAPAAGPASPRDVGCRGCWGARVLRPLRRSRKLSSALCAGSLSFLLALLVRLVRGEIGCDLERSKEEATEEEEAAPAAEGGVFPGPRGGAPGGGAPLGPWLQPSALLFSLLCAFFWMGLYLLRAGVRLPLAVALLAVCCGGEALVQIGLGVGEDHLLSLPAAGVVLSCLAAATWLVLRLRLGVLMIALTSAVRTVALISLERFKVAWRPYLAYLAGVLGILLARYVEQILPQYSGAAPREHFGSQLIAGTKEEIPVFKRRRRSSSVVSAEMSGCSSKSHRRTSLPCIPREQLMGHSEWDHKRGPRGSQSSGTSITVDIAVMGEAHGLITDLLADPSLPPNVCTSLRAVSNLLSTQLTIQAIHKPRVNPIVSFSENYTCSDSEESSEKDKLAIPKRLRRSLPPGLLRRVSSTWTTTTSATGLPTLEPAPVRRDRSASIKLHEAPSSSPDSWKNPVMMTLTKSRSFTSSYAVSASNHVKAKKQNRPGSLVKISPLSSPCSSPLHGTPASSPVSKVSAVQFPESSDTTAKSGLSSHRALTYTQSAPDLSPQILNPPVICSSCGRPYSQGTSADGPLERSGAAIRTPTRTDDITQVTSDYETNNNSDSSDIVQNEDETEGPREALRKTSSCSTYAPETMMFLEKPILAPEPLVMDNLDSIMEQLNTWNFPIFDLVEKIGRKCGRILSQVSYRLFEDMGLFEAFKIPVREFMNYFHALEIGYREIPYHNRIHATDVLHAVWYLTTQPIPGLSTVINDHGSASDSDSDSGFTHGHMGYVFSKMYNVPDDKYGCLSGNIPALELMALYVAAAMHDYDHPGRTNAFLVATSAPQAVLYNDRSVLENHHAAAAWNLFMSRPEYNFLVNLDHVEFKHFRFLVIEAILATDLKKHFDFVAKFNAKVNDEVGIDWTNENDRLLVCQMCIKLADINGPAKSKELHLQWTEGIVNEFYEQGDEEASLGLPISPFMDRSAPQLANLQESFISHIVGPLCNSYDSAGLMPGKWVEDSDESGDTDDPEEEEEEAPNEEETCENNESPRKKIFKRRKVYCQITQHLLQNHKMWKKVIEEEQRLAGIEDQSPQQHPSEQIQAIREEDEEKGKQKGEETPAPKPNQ
Description: Inhibition of phosphodiesterase type III, Method B (Appleman and Terasaki). In kind it is biochemical. Conditions: read-out: percentage inhibition of FDE-III activity; for inhibition at 100 µM: 10^-4 mol/l; for inhibition at 10 µM: 10^-5 mol/l; for inhibition at 1 µM: 10^-6 mol/l. Here is the method:
(§2) The inhibitory action of the compounds according to the invention on phosphodiesterase was tested on phosphodiesterase type III obtained from ox heart (Sigma Chemie, BRD) by the methods of W. Diederen and H. Weisenberger (Arzneim.-Forschumg 31, 177 (1981)) (Method A) and of M. A. Appleman and W. L. Terasaki (Advances in Cyclic Nucleotide Research, volume 5, Raven Press, New York (1975), page 153) (Method B).

For series [3], the system named is narcotised guinea pigs. As to the kind of experiment: Haemodynamic characterisation on narcotised guinea pigs (in vivo model). More on the design: species or system guinea pig. Conditions: 10 μg/kg/min, infused through left jugular vein, under β-blockage (metoprolol 2 mg/kg i.m.).
Text: as §1
2. Haemodynamic Characterisation on Narcotised Guinea Pigs (in vivo model)
The animals were narcotised with urethane (1.5 g/kg). The trachea was cannulated for volume controlled respiration. The two carotid arteries were then exposed operatively. A Tip catheter (3F) was introduced through the right carotid artery and moved forwards through the ascending aorta into the left ventricle while the pressure was continuously recorded. Successful passage through the aortic valves is recognised by the typical left ventricular pressure curve. A thermistor probe (3F, F. Edwards) is pushed forwards into the aortic arch through the left carotid for thermodilution. The thermistor probe also has a lumen for the recording of arterial blood pressure. A catheter is passed through the right jugular vein to be placed in front of the right auricle for application of the cold injectate (0.2 ml of 0.9% NaCl, 15° C.). The ECG is recorded in the first shunt. All substances are dissolved in physiological saline solution and infused through the left jugular vein (infusion volume 0 02 ml/min). The drug is applied after haemodynamic stabilisation and under β-blockage (metoprolol 2 mg/kg i.m.). All circulatory parameters are continuously registered on a direct recorder. The pulse frequency is calculated from the ECG, the contractility (dp/dt) is calculated from the […] and the volumetric cardiac output per unit time is calculated from the thermodilution curve.

For series [4], the target named is T1, phosphodiesterase type III obtained from ox heart. As to the kind of experiment: Inhibition of phosphodiesterase type III, Method A (Diederen and Weisenberger). It is filed as biochemical. Conditions: read-out: percentage inhibition of FDE-III activity; for inhibition at 10 µM: 10^-5 mol/l; for inhibition at 1 µM: 10^-6 mol/l; for inhibition at 0.1 µM: 10^-7 mol/l. As to the method:
as §2

The conditions of series [5]: cited from earlier work.
The subject of series [6] is phosphodiesterase type III. To be noted: heart muscle cells; cited from earlier work.
[7] abbreviates: concentration range 10^-7 - 10^-5 mol/l, read-out: Maximum percentage changes compared with controls: Cardiac Frequency.
The mark [8] stands for this setting: concentration range 10^-7 - 10^-5 mol/l, read-out: Maximum percentage changes compared with controls: Contractility dp/dt.
Setting [9] is: concentration range 10^-7 - 10^-5 mol/l, read-out: Maximum percentage changes compared with controls: Coronary Flow.
The mark [10] stands for this setting: due to the mechanisms of their action.

Like-named read-outs stand apart in the source and are kept apart here.

On to `CC1CC(=O)NN=C1c1ccc2[nH]c(CCCN)nc2c1` (centres unmarked) [Example 1], for which the Emax in series [1] (concentration range 10^-8 - 10^-4 mol/l, read-out: Maximum percentage changes compared with controls: Cardiac Frequency) was found to be 11%. For the same molecule, the Emax in series [1] (concentration range 10^-8 - 10^-4 mol/l, read-out: Maximum percentage changes compared with controls: Contractility dp/dt) came out at 76%. Moreover, the Emax in series [1] (concentration range 10^-8 - 10^-4 mol/l, read-out: Maximum percentage changes compared with controls: Coronary Flow) is 25%. Moreover, in series [2], the inhibition (commonly the percentage by which the read-out fell short of the control) at 100 µM came to 4%, the inhibition at 10 µM came to 0% and the inhibition at 1 µM stood at 0%. Further, in series [2] (10^-7 mol/l), the inhibition at 0.1 µM came out at 0%. In series [3], the “Maximum percentage changes compared with initial values: Blood Pressure sys.” value (from here on “Maximum percentage changes … Blood Pressure sys.”) is -25%, the “Maximum percentage changes compared with initial values: Cardiac Frequency” value (“Maximum percentage changes … Cardiac Frequency” for short) is “+20%” and the “Maximum percentage changes compared with initial values: Contractility dp/dt” value (shortened to “Maximum percentage changes … Contractility dp/dt”) was “+38%”. The inhibition at 100 µM in series [4] (10^-4 mol/l) is 10%. Further, in series [4], the inhibition at 10 µM was found to be 7%, the inhibition at 1 µM worked out at 0% and the inhibition at 0.1 µM turned out to be 0%.
On to `CC1CC(=O)NN=C1c1ccc2[nH]c(CCCNC(=N)NCCCc3c[nH]cn3)nc2c1` (centres unmarked) [Example 6], for which the Emax in series [1] (setting [7]) came out at 20%. Also, the Emax in series [1] (setting [8]) worked out at 161%. Moreover, the Emax in series [1] (setting [9]) was 52%. Besides, in series [3], the “Maximum percentage changes … Blood Pressure sys.” value is recorded as -15%, the “Maximum percentage changes … Cardiac Frequency” value is “+17%” and the “Maximum percentage changes … Contractility dp/dt” value is recorded as “+97%”.
Take `COc1ccc(-c2nc3ccc(C4=NNC(=O)CC4C)cc3[nH]2)cc1` (centres unmarked) [Pimobendane, reference compound]: the undesirable side effects entry in series [5] (in vivo) is listed as “undesirable side effects due to the mechanisms of their action, such as thrombocytopaenia or gastrointestinal disturbances”. Also, in series [1] (setting [7]), the Emax came to 8%. The Emax in series [1] (setting [8]) is 99%. Also, in series [1] (setting [9]), the Emax was 76%. Also, in series [2], the inhibition at 100 µM turned out to be 57%, the inhibition at 10 µM was found to be 19% and the inhibition at 1 µM came out at 5%. In series [3], the “Maximum percentage changes … Blood Pressure sys.” value was -51%, the “Maximum percentage changes … Cardiac Frequency” value is on record as “+3%” and the “Maximum percentage changes … Contractility dp/dt” value is reported as “+10%”. In series [4], the inhibition at 10 µM turned out to be 30%, the inhibition at 1 µM was found to be 15% and the inhibition at 0.1 µM is 7%. The “positive inotropic effect by inhibiting phosphodiesterases, in particular type III” value in series [6] is “positive inotropic effect”.
For `Nc1cc(-c2ccncc2)c[nH]c1=O` [amrinone], the undesirable side effects result in series [5] (setting [10]) is “undesirable side effects due to the mechanisms of their action, such as thrombocytopaenia or gastrointestinal disturbances”. Moreover, the “positive inotropic effect by inhibiting phosphodiesterases, in particular type III” value in series [6] is “positive inotropic effect”.
`Cc1[nH]c(=O)c(C#N)cc1-c1ccncc1` [milrinone]: the undesirable side effects entry in series [5] (setting [10]) is “undesirable side effects due to the mechanisms of their action, such as thrombocytopaenia or gastrointestinal disturbances”. In series [6], the “positive inotropic effect by inhibiting phosphodiesterases, in particular type III” value is recorded as “positive inotropic effect”.
